Results: patent publication US20250179121A1, “CYCLOSPORINE COMPOSITIONS AND METHODS OF USE” (Bacainn Biotherapeutics, Ltd., priority 2018, published 2025)
Where “and” joins values, the source holds several entries; their conditions need not be identical. Equal entries are not always repeated.

Key:
[1] = Amount excreted in feces after oral dosing in rats; type: in vivo, Sprague-Dawley rats; details: rat; for Conc. in feces: BT070 10 mg/kg oral, individual animals A-C, corrected for the 1:9 dilution factor
neutrophil migration = experiment: PMN transmigration assay (T84 monolayer infected with Salmonella typhimurium, MPO readout); type: cell-based, human
Method: PMN transmigration assay. T84 colorectal cancer cells were grown to confluence on the bottom side of 12 well polycarbonate membrane inserts of a 24 well Transwell® plate. The confluent growth of these epithelial cells results in physiologically-relevant apical (luminal) and basolateral surfaces in the transwells. […] The monolayer was then infected on the apical surface with Salmonella typhimurium for 2 hours to induce hepoxilin A3 (HXA3) efflux through the MRP2 membrane protein and into the apical chamber. […] Freshly isolated and prepared human neutrophils were then added to the basolateral side and allowed to transmigrate through the monolayer for 2 hours. The number of neutrophils migrated to the apical chamber (due to the HXA3 gradient) was then assayed by determination of myeloperoxidase activity (a neutrophil biomarker). Inhibition of transmigration is indicated by lower MPO activity in the apical chamber.

[2] = Rat PK, plasma concentrations after oral dosing; type: in vivo, Sprague-Dawley rats; details: for plasma concentration of BT070 (breakdown product of BT051): individual animals A-E
Method: [Worded in the source for another target; this target is reported under the same test.] Blood samples were collected at the indicated time points and processed to plasma. Plasma concentrations of BT090 were assayed by LC-MS/MS. Feces were collected over t=0 to 4 h, 4-8 h, and 8-24 h, homogenized in buffer and assayed for BT090 concentrations by LC-MS/MS. Total feces weight collected for each time interval was recorded. BT090 was formulated in 1% NMP, 0.3% Tween-80 in 0.5% methylcellulose.

[3] = BT070 10 mg/kg oral, rat, individual animals A-C, 10 mg/kg

IC50 (neutrophil migration; read-out: compound concentration at which 50% inhibition of neutrophil migration was observed, FIG. 1 dose-response): 31.2 nM
plasma concentration, Mean ([2]; BT070 10 mg/kg oral, rat, 0.5 h, mean): 3588.6 ng/mL
plasma concentration, Mean ([2]; BT070 10 mg/kg oral, rat, 1 h, mean): 2301.5 ng/mL
plasma concentration, Mean ([2]; BT070 10 mg/kg oral, rat, 2 h, mean): 1522.8 ng/mL
plasma concentration, Mean ([2]; BT070 10 mg/kg oral, rat, 4 h, mean): 829.6 ng/mL
plasma concentration, Mean ([2]; BT070 10 mg/kg oral, rat, 6 h, mean): 488.3 ng/mL
plasma concentration, Mean ([2]; BT070 10 mg/kg oral, rat, 8 h, mean): 293.9 ng/mL
plasma concentration, Mean ([2]; BT070 10 mg/kg oral, rat, 24 h, mean): 101.2 ng/mL
AUCinf, Mean ([2]; BT070 10 mg/kg oral, rat, mean): 14735.7 ng·h/mL
AUClast, Mean ([2]; BT070 10 mg/kg oral, rat, mean): 12202.9 ng·h/mL
plasma concentration of BT070 (breakdown product of BT051), Mean ([2]; after BT051 10 mg/kg oral, rat, 0.5 h, mean): 3.3 ng/mL
Cmax of BT070 (breakdown product of BT051) ([2]; after BT051 10 mg/kg oral, rat, individual animals): 3.3 ng/mL
Cmax of BT070 (breakdown product of BT051), Mean ([2]; after BT051 10 mg/kg oral, rat, mean): 3.3 ng/mL
oral bioavailability of the breakdown product of BT051 ([2]; following oral administration of BT051 in rats at 10 mg/kg): not orally bioavailable
Compound: CC[C@@H]1NC(=O)[C@H]([C@H](O)[C@H](C)CCCCCC(=O)O)N(C)C(=O)[C@H](C(C)C)N(C)C(=O)[C@H](CC(C)C)N(C)C(=O)[C@H](CC(C)C)N(C)C(=O)[C@@H](C)NC(=O)[C@H](C)NC(=O)[C@H](CC(C)C)N(C)C(=O)[C@H](C(C)C)NC(=O)[C@H](CC(C)C)N(C)C(=O)CN(C)C1=O [BT070]
Conc. in feces ([1]; 0-4 h): NQ (Not quantifiable. No peak or below limit of quantification (LOQ = 1000 ng/mL))
Conc. in feces ([1]; 4-8 h): NQ (Not quantifiable. No peak or below limit of quantification (LOQ = 1000 ng/mL))
Total amount of BT070 (breakdown product of BT051) excreted in feces ([1]; after BT051 10 mg/kg oral, 0-48 h, individual animals A-D): 36.9 µg and 33.4 µg and 41.4 µg and 38.5 µg
Amount of BT070 (breakdown product of BT051) excreted in feces ([1]; after BT051 10 mg/kg oral, 8-24 h, individual animals A-D): 31.2 µg and 14.3 µg and 10.6 µg and 34.8 µg
Amount of BT070 (breakdown product of BT051) excreted in feces ([1]; after BT051 10 mg/kg oral, 24-48 h, individual animals A-D): 5.7 µg and 19.1 µg and 30.8 µg and 3.7 µg
inhibition of neutrophil migration, dose-response (neutrophil migration; FIG. 1): dose-responsive inhibition
inhibition of neutrophil migration (neutrophil migration; dose of 100 nM): exhibit inhibition of neutrophil migration
AUCinf [2, 3]: 17616.8 ng/mL * h and 19158.4* ng/mL * h and 7432.0 ng/mL * h
AUClast [2, 3]: 17560.9 ng·h/mL and 11798.3 ng·h/mL and 7249.5 ng·h/mL
plasma concentration of BT070 (breakdown product of BT051) ([2]; after BT051 10 mg/kg oral, rat, 0.5 h): 3.3 ng/mL and NQ (Not quantifiable. No peak or below limit of quantification (LOQ = 2.5 ng/mL)) (4×)
plasma concentration of BT070 (breakdown product of BT051) ([2]; after BT051 10 mg/kg oral, rat, 1 h): NQ (Not quantifiable. No peak or below limit of quantification (LOQ = 2.5 ng/mL))
plasma concentration of BT070 (breakdown product of BT051) ([2]; after BT051 10 mg/kg oral, rat, 2 h): NQ (Not quantifiable. No peak or below limit of quantification (LOQ = 2.5 ng/mL))
plasma concentration of BT070 (breakdown product of BT051) ([2]; after BT051 10 mg/kg oral, rat, 4 h): NQ (Not quantifiable. No peak or below limit of quantification (LOQ = 2.5 ng/mL))
plasma concentration of BT070 (breakdown product of BT051) ([2]; after BT051 10 mg/kg oral, rat, 6 h): NQ (Not quantifiable. No peak or below limit of quantification (LOQ = 2.5 ng/mL))
plasma concentration of BT070 (breakdown product of BT051) ([2]; after BT051 10 mg/kg oral, rat, 8 h): NQ (Not quantifiable. No peak or below limit of quantification (LOQ = 2.5 ng/mL))
plasma concentration of BT070 (breakdown product of BT051) ([2]; after BT051 10 mg/kg oral, rat, 24 h): NQ (Not quantifiable. No peak or below limit of quantification (LOQ = 2.5 ng/mL))
detection in the plasma from 15 minutes to 24 hours ([2]; compound dosed orally in rats at 10 mg/kg): present in the plasma in all subject rats
